The text below walks through data of patent US9216166B2, “Anti-microbial photodynamic therapy” (Biolitec Pharma Marketing, Ltd, priority 2006, dated 2015).

What all share (assay type): cell-based
Assay [1] relates to Staphylococcus aureus, Pseudomonas aeruginosa and Escherichia coli. Description: Photodynamic inactivation of bacteria with Safranin O (FIG. 1). The text has this: (§1) One of the major problems for the use of anti-microbial PDT is a blocking action of the components of the blood whose presence decreases the activity of photosensitizers.
(§2) The antibacterial effect strongly depends on the kind of bacterial cells.
(§3) FIG. 1, Graph showing photodynamic inactivation of Staphylococcus aureus DSM1104 (FIG. 1A), Pseudomonas aeruginosa DSM1 117 (FIG. 1B), and Escherichia coli DSM8698 (FIG. 1C) by treatment with Safranin O as a photo sensitizer.

Assay [2] concerns Pseudomonas aeruginosa DSM1117. Description: Photodynamic inactivation of Pseudomonas aeruginosa with Safranin O (FIG. 1B).
Description: as §1, §2, §3

Assay [3] deals with Staphylococcus aureus DSM1104. Description: Photodynamic inactivation of Staphylococcus aureus with Safranin O (FIG. 1A).
Description: as §1, §2, §3

The test system of another assay is Escherichia coli DSM8698. Description: Photodynamic inactivation of Escherichia coli with Safranin O (FIG. 1C). To be noted: compared with Staphylococcus aureus.
Description: as §1, §2, §3

Assay [4] has as its system Gram-positive and Gram-negative bacteria. The experiment in a line: Photodynamic inactivation of bacterial cell suspension using photosensitizers 1, 3a-e (CFU/ml after 665 nm laser irradiation). To be noted: in the presence of blood (PBS with 10% human blood), 30 min incubation, about 100 J/cm^2, FIG. 2. The protocol:
In the preferred embodiment, the antibacterial treatment includes the administration of photosensitizers to an environment containing bacteria and is allowed to incubate for a sufficient period of time thus providing accumulation of the photosensitizer into the bacterial cells. The incubation time varies depending on many factors. In this experiment it is incubated for 30 min before being irradiated with 665 nm laser at 100 J/cm^2 to initiate photodestruction of bacterial cells. The photosensitizer can be administered either by systemic application, or local injection in the affected area. For infection on or near the skin it can be administered topically.
The organisms used in our studies were three members of the microflora of wounds: Staphylococcus aureus DSM1104, Gram-positive; Escherichia coli DSM8698, Gram-negative; Pseudomonas aeruginosa DSM1117, Gram-negative.
Cultured cells are suspended in sterile phosphate-buffered saline (PBS) or sterile PBS supplemented with 10% sterile horse blood serum, 10% human plasma or 10% human blood respectively. The final OD (Optical Density) at 600 nm, 1 cm in all cases was 0.03. The bacterial suspensions are placed into sterile black well plates with clear bottoms. […]

Each structure is given as a SMILES string.

Turning to `Cc1cc2nc3cc(C)c(N)cc3[n+](-c3ccccc3)c2cc1N.[Cl-]` [Safranin O], the bactericidal photodynamic activity entry in assay [1] (in PBS buffer) is given as “high bactericidal photodynamic activity”. The “change of bactericidal photodynamic activity” value in assay [1] (when blood serum or blood is added) is given as “decreased remarkably”. Also, the “effect of added serum, plasma or blood on photodynamic activity against Pseudomonas aeruginosa” value in assay [2] (addition of 10% of horse serum or human plasma or whole blood) is recorded as “practically block the photodynamic activity”. Further, the “susceptibility of Gram-negative cells of Pseudomonas aeruginosa to killing by PDT” value in assay [2] (compared with Staphylococcus aureus, FIG. 1) is on record as “more resistant to killing by PDT”. Further, the “killing of Gram-positive cells of Staphylococcus aureus by PDT” value in assay [3] was “could be killed sufficiently”. In addition, the “susceptibility of Gram-negative cells of Escherichia coli to killing by PDT” value with Escherichia coli DSM8698 is “more resistant to killing by PDT”.

Consider `CCC1=C(C)c2cc3[nH]c(cc4nc(c5c6[nH]c(cc1n2)c(C)c6C(=O)C5)[C@@H](CCC(=O)O)C4C)c(C)c3CC` (stereo partly drawn) [compound 1, meso pyropheophorbide-a], for which the “photodynamic activity against Gram-positive and Gram-negative bacteria” value in assay [4] was “not active”.
